Columns and labels:
[1] = target: Phosphatidylinositol 3-kinase catalytic subunit type 3 (Homo sapiens, UniProt Q8NEB9); test: Selectivity interaction (KinomeScan (DiscoverX)) EUB0001079a PIK3C3; conditions: at 1 µM
[2] = target: Proto-oncogene tyrosine-protein kinase ROS (Homo sapiens) (UniProt P08922); test: Selectivity interaction (Millipore kinase profiler) EUB0000124b ROS1; conditions: at 10 µM
[3] = target: Protein kinase C theta type (Homo sapiens, UniProt Q04759); test: Selectivity interaction (Millipore kinase profiler) EUB0000124b PRKCQ; conditions: at 10 µM
[4] = target: Ribosomal protein S6 kinase alpha-2 (Homo sapiens) (UniProt Q15349); test: Selectivity interaction (KinomeScan (DiscoverX)) EUB0000045b RPS6KA2; conditions: at 10 µM
[5] = target: Serine/threonine-protein kinase SBK1 (Homo sapiens) (UniProt Q52WX2); test: Selectivity interaction (KinomeScan (DiscoverX)) EUB0000045b SBK1; conditions: at 1 µM
[6] = target: T1, Uncharacterized serine/threonine-protein kinase SBK3 (Homo sapiens) (UniProt P0C264); test: Selectivity interaction (KinomeScan (DiscoverX)) EUB0000595a SBK3; conditions: at 10 µM
T1 sequence (whole entry): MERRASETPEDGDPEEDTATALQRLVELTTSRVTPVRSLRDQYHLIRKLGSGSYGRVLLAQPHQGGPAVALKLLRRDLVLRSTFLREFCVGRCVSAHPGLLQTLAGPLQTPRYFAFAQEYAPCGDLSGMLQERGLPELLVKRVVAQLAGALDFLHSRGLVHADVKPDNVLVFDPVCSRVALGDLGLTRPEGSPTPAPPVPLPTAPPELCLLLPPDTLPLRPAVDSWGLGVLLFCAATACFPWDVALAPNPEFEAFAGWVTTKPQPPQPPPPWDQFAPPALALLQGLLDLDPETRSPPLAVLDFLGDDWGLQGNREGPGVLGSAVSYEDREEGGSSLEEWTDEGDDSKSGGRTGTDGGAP

[7] = target: Histone-lysine N-methyltransferase 2C (Homo sapiens) (UniProt Q8NEZ4); conditions: at 10 µM
[8] = target: Ribosomal protein S6 kinase alpha-1 (Homo sapiens, UniProt Q15418); test: Selectivity interaction (ActivX KiNativ screen (kinase selectivity in THP-1 cell lysates)) EUB0000639a RPS6KA1; type: subcellular; conditions: lysate, at 0.2 µM
[9] = target: T2, Serine/threonine-protein kinase LATS1 (Homo sapiens) (UniProt O95835); test: Selectivity interaction (KinomeScan (DiscoverX)) EUB0000229b LATS1; conditions: at 10 µM
T2 sequence (whole entry): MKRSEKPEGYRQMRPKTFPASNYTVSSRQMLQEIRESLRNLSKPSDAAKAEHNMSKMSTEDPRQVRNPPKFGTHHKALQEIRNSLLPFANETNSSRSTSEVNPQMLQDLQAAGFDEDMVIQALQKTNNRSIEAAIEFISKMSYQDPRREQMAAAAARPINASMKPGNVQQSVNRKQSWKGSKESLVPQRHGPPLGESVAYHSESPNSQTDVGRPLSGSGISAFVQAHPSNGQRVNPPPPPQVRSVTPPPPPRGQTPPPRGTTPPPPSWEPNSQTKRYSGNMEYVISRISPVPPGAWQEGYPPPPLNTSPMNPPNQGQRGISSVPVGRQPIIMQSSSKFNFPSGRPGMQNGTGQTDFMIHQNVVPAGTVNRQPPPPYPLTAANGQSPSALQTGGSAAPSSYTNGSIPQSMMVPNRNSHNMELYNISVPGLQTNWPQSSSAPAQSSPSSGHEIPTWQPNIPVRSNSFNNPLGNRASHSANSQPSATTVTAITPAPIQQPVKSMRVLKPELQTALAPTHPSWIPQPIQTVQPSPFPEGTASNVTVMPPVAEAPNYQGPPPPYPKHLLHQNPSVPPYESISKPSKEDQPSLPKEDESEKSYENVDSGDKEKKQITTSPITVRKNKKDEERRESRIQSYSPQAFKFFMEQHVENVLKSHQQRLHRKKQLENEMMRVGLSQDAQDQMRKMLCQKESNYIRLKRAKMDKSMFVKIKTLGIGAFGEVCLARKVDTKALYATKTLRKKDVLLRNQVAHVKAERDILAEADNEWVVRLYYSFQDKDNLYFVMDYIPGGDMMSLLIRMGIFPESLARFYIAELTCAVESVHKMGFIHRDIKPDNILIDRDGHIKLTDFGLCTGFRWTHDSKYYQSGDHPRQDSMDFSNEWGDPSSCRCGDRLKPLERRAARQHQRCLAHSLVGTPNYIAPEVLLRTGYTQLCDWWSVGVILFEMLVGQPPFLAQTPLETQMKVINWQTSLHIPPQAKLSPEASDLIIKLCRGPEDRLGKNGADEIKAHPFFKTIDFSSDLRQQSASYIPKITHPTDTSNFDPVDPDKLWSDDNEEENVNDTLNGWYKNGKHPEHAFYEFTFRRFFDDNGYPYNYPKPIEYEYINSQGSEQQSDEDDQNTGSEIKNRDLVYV

[10] = target: T3, Mitogen-activated protein kinase 15 (Homo sapiens) (UniProt Q8TD08); test: Selectivity interaction (KinomeScan (DiscoverX)) EUB0000229b MAPK15; conditions: at 10 µM
T3 sequence (whole entry): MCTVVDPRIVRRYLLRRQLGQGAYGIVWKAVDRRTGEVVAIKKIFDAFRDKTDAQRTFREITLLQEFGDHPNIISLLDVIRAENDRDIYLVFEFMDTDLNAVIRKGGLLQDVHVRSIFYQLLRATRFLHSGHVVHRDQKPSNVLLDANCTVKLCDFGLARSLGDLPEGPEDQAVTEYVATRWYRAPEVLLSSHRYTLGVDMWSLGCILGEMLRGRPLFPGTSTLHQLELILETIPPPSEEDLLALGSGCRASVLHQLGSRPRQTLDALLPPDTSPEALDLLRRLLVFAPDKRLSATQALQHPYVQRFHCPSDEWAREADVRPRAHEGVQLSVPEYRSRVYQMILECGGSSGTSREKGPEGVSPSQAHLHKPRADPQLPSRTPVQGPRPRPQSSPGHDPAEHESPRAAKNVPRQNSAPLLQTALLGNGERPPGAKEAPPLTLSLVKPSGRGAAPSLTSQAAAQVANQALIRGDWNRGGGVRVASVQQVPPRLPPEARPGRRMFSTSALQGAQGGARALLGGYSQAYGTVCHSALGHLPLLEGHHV

[11] = target: Dual specificity protein kinase CLK3 (Homo sapiens, UniProt P49761); test: Selectivity interaction (KinomeScan (DiscoverX)) EUB0001049a CLK3; conditions: at 1 µM
[12] = target: Serine/threonine-protein kinase mTOR (Homo sapiens, UniProt P42345); test: Selectivity interaction (KinomeScan (DiscoverX)) EUB0000666a MTOR; conditions: at 10 µM
[13] = target: MAP kinase-interacting serine/threonine-protein kinase 2 (Homo sapiens, UniProt Q9HBH9); test: Selectivity interaction (Kinase panel (Carna Biosciences)) EUB0001542aTs MKNK2; conditions: at 1 µM
[14] = target: STE20/SPS1-related proline-alanine-rich protein kinase (Homo sapiens) (UniProt Q9UEW8); test: Selectivity interaction (LanthaScreen Eu Kinase Binding Assay) EUB0001632a STK39; conditions: at 10 µM

Chain of Proto-oncogene tyrosine-protein kinase ROS (Homo sapiens) (P08922 whole entry): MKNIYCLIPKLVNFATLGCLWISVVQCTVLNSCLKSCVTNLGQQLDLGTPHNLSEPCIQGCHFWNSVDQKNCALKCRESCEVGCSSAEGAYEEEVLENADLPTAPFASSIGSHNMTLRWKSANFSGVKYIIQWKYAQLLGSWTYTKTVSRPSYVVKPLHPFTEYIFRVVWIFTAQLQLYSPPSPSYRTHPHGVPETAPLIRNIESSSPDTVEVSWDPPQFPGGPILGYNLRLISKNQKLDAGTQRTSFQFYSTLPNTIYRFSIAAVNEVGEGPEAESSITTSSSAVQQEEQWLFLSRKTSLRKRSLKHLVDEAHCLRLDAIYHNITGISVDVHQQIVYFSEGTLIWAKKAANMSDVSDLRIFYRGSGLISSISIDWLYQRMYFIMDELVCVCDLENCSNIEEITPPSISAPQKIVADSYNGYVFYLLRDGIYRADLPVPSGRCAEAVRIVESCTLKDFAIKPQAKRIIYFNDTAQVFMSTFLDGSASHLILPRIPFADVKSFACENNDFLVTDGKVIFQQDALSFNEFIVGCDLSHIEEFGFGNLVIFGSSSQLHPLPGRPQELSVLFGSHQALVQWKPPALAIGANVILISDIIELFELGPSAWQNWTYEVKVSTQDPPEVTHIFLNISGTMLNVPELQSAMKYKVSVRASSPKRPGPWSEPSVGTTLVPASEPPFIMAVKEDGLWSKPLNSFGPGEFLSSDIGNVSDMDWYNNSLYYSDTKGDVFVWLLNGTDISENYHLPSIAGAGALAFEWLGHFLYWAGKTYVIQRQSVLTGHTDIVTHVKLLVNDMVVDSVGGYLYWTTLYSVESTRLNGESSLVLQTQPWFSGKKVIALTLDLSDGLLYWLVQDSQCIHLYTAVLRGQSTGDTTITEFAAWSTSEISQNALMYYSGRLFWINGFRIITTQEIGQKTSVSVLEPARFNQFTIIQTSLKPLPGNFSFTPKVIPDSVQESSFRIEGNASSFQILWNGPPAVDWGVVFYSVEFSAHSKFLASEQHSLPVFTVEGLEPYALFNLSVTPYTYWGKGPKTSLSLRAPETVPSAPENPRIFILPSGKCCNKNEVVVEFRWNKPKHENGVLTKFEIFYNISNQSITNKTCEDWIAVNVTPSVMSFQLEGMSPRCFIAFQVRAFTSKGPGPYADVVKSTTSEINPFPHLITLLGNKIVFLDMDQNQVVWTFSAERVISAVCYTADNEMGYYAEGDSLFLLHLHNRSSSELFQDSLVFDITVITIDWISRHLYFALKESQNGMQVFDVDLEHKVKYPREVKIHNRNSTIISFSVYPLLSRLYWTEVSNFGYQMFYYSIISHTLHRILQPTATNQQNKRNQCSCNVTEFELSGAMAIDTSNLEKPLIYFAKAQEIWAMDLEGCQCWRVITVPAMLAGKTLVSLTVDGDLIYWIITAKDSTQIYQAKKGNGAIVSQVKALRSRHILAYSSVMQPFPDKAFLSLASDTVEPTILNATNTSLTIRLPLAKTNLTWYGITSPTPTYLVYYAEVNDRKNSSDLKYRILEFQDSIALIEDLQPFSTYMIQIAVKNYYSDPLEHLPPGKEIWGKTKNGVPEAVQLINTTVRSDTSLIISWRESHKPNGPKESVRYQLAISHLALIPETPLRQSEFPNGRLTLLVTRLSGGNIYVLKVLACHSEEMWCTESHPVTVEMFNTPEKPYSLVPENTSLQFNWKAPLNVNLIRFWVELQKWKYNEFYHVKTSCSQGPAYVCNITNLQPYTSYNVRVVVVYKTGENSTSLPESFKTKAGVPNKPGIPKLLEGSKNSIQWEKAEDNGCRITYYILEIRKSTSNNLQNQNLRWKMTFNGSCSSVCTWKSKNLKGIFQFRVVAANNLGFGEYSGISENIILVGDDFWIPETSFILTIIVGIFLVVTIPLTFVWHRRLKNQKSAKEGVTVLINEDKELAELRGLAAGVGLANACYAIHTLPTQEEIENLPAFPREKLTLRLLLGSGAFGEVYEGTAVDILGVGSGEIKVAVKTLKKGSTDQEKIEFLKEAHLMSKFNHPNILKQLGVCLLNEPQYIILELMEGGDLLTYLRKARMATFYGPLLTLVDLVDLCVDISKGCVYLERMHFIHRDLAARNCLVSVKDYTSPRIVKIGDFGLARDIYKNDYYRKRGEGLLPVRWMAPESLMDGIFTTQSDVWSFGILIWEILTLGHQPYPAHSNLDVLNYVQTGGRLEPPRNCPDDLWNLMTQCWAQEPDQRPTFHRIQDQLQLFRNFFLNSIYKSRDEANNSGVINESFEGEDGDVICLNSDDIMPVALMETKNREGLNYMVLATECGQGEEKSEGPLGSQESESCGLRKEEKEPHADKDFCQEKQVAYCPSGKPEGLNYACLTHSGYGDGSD
Chain of Ribosomal protein S6 kinase alpha-2 (Homo sapiens) (Q15349 whole entry): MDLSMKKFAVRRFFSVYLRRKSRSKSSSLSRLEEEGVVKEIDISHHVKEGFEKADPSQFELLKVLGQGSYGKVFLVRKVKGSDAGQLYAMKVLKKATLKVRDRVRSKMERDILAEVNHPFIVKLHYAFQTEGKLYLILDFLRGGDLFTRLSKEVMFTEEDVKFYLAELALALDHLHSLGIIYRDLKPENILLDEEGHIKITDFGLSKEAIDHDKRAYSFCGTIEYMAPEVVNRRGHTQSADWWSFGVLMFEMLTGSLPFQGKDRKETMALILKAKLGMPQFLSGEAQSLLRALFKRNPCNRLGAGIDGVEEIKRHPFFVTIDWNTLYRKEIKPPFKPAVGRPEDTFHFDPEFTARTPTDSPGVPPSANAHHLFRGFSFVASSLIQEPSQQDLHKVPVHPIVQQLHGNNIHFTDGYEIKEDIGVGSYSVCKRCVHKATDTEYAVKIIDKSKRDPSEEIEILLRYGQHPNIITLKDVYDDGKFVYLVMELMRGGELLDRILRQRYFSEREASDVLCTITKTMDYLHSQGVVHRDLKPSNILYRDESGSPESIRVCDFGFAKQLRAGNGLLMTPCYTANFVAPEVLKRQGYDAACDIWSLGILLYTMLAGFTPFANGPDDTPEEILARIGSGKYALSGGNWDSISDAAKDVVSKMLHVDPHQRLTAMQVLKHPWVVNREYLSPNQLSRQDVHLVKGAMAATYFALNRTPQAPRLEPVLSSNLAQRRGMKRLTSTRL
Chain of Ribosomal protein S6 kinase alpha-1 (Q15418 whole entry): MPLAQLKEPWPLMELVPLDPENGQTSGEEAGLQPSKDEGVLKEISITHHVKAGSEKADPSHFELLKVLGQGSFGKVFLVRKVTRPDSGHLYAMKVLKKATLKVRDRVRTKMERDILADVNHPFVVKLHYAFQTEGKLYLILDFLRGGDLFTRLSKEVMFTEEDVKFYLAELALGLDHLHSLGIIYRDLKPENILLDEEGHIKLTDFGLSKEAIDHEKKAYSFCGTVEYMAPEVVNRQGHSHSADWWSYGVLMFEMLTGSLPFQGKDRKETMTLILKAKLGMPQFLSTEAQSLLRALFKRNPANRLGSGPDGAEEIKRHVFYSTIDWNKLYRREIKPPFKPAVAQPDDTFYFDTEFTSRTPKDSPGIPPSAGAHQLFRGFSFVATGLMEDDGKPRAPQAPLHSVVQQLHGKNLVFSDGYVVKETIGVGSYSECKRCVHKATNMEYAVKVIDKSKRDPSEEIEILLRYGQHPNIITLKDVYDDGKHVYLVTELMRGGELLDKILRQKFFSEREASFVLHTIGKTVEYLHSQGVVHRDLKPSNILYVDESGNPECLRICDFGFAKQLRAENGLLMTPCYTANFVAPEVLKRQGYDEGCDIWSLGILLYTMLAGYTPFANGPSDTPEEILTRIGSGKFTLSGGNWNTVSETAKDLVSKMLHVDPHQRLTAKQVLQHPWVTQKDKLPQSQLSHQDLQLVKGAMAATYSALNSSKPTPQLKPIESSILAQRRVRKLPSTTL
Chain of Phosphatidylinositol 3-kinase catalytic subunit type 3 (Q8NEB9 whole entry): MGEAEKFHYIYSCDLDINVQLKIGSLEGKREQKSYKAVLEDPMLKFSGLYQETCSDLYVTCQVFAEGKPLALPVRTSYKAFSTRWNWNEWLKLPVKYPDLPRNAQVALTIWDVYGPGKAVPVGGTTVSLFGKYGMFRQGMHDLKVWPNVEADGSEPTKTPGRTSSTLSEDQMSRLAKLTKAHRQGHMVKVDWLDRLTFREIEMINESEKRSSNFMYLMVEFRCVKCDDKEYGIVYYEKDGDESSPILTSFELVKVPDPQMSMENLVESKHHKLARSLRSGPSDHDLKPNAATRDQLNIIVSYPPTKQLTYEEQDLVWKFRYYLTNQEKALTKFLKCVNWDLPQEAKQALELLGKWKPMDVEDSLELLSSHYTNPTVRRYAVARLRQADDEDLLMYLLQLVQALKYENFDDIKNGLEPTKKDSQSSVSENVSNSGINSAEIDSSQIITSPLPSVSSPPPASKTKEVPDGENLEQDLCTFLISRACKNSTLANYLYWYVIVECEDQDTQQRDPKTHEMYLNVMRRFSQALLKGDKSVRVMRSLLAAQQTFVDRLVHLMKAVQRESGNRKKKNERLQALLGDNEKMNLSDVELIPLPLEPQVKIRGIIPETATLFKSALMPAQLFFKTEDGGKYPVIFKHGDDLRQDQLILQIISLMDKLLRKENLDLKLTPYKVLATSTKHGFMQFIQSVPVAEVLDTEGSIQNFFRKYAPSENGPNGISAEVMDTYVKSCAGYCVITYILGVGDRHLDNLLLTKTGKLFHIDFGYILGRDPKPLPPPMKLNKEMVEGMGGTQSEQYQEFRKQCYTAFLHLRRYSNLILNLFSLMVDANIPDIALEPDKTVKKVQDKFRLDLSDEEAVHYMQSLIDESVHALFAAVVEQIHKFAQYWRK
Chain of Serine/threonine-protein kinase SBK1 (Homo sapiens) (Q52WX2 whole entry): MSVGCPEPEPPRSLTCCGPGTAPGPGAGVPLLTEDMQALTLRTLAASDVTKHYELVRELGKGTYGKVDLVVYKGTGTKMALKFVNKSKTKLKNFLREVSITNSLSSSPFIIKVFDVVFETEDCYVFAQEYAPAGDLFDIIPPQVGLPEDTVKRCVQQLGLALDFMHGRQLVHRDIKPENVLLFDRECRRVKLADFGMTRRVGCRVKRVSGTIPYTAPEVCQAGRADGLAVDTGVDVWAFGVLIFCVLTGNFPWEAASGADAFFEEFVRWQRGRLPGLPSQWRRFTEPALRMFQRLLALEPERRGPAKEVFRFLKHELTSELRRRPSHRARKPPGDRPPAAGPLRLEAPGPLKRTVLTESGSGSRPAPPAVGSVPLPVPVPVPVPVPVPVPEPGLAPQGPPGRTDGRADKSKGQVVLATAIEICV

## Nc1cnc(N2CCc3cc(S(=O)(=O)Nc4c(F)cc(Cl)cc4F)cc(N4CCCC4=O)c32)nc1 [TP-020n]
[1]
  % of control: 100%

## CC(=O)Nc1cccc(-n2c(=O)n(C3CC3)c(=O)c3c(Nc4ccc(I)cc4F)n(C)c(=O)c(C)c32)c1
[2]
  % of control: 107%
[3]
  % of control: 114%

## C=CC(=O)Nc1cc(-n2c(=O)ccc3cnc4ccc(-c5ccc(NS(C)(=O)=O)cc5)cc4c32)ccc1C
[4]
  % of control: 78%
[5]
  % of control: 4.6%

## COCC(=O)NC/C=C/c1ccc2ncnc(Nc3ccc(Oc4ccc(C)nc4)c(C)c3)c2c1 [CP-724714]
[6]
  % of control: 100%

## CNCCN1CCC(c2cc(CN(C)C(=O)c3cccc(Oc4ccccc4)c3)ccn2)CC1
[7]
  % activity: > 90%

## CC[C@@H]1[C@H](F)C(=O)N[C@@H]1COc1nccc2cc(C(N)=O)c(OC)cc12 [ZIMLOVISERTIB]
[8]
  % of inhibition: -3.6%

## COc1cc(N(C)c2ccnc3ccc(C(F)(F)F)cc23)cc(OC)c1OC
[9]
  % binding: 100%
[10]
  % binding: 100%

## COc1cc(Nc2nc(C)cc(-c3cnn4nc(OC)ccc34)n2)cc(C(F)(F)F)c1
[11]
  % of control: 80%

## O=C(NOC[C@H](O)CO)c1ccc(F)c(F)c1Nc1ccc(I)cc1F
[12]
  % of control: 100%

## Cn1cc(Nc2nccc(N3CC4CCC(C3)N4C(=O)[C@@H]3CC3(F)F)n2)cn1
[13]
  % of inhibition: 68%

## Cn1cc(-n2cnc3c(NCc4nc5cc(Cl)c(Cl)cc5[nH]4)nc(N4CCOCC4)nc32)cn1
[14]
  % of inhibition: -29.3%
